Assay results as given in patent US20250296959A1, “B7-H3 TARGETING PEPTIDES AND CONSTRUCTS THEREOF” (Mariana Oncology Inc., priority 2024, published 2025).
Starred links: 1 amine or outer side, 2 acyl side, 3 side chain; linkers in the order of their positions; H or OH if unused. Positions of bridges follow the written chain, without caps; N, C: chain ends. Non-standard residues stand in square brackets, D forms with d. Residues, ends and D or L forms follow the SMILES beside them. Groups on a side chain read outwards from the residue. *: point of attachment. Ala(1-CH2CO2H-4-piperidyl) = N[C@@H](CC1CCN(CC(=O)O)CC1)C(=O)O; Ala(piperidin-4-yl) = O=C([C@H](CC1CCN([*:3])CC1)N[*:1])[*:2]; Phe(3-CH2NH2) = O=C([C@H](Cc1cccc(CN[*:3])c1)N[*:1])[*:2]; DOTA = O=C(O)CN1CCN(CC(=O)O)CCN(CC(=O)*)CCN(CC(=O)O)CC1; Phe(4-COOH) = N[C@@H](Cc1ccc(C(=O)O)cc1)C(=O)O; Trp(5-F) = N[C@@H](Cc1c[nH]c2ccc(F)cc12)C(=O)O; γGlu = O=C(O)[C@H](CCC(=O)[*:2])N[*:1]; 1Nal = N[C@@H](Cc1cccc2ccccc12)C(=O)O; Ala(4-THP) = N[C@@H](CC1CCOCC1)C(=O)O; N(CH2CH2COOH)Gly = O=C(O)CCNCC(=O)O; Val(3-OH) = CC(C)(O)[C@H](N)C(=O)O; aThr = C[C@H](O)[C@H](N)C(=O)O; PEG4 = NCCOCCOCCOCCOCCC(=O)O; Tle = CC(C)(C)[C@H](N)C(=O)O; hLeu = CC(C)CC[C@H](N)C(=O)O; NMeC = CN[C@@H](CS)C(=O)O; Nle = CCCC[C@H](N)C(=O)O; AEA = NCCOCC(=O)O

Biological target: T1, human 4lg B7-H3 (Homo sapiens, UniProt Q5ZPR3)
T1 sequence (Q5ZPR3 29-534): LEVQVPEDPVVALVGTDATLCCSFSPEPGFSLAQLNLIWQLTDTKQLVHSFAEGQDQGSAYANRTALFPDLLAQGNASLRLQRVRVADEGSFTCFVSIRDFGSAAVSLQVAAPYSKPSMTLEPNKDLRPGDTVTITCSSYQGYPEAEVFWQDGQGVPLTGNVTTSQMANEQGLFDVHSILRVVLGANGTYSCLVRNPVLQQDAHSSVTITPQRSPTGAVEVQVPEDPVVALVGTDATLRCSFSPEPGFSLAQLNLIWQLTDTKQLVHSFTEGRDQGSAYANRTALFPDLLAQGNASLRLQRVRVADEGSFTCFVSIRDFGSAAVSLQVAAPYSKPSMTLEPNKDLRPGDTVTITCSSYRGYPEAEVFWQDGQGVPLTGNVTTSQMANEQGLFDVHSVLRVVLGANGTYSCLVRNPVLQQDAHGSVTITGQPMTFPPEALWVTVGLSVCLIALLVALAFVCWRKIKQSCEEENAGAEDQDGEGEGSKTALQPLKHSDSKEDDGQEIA
Assay: Affinity determination by surface plasmon resonance (SPR) to 4Ig B7-H3
Details: SPR KD—25° C., 4Ig B7-H3; 25° C. flow cell temperature

Row | Kd [nM] | SMILES
1 | 1 to 10 | CC(=O)N[C@@H](CCC(C)C)C(=O)N[C@@H](Cc1ccc(O)cc1)C(=O)N(C)[C@H]1CSSC[C@@H](C(=O)N[C@@H](Cc2c[nH]c3ccc(F)cc23)C(=O)N[C@@H](Cc2ccccc2)C(=O)N[C@H](C(=O)N[C@H](CCCCNC(=O)CN2CCN(CC(=O)O)CCN(CC(=O)O)CCN(CC(=O)O)CC2)C(N)=O)[C@@H](C)O)NC(=O)[C@H](Cc2ccc(O)cc2)NC(=O)[C@H](C(C)C)NC(=O)[C@H](CC(=O)O)NC(=O)[C@H](Cc2ccc(O)cc2)NC(=O)[C@H](CCCCN)NC(=O)CNC(=O)[C@H](C(C)C)NC1=O [compound 237, Ac-hLeu-Y-NMeCys-V-G-K-Y-D-V-Y-C-5FW-F-Thr-dLys(DOTA)-CONH2] (Ac-[hLeu]Y[NMeC]VGKYDVYC[Trp(5-F)]FT[dK](DOTA)-NH2; disulfide 3-11)
2 | 10 to 100 | CCCC[C@H](NC(C)=O)C(=O)N[C@@H](Cc1ccc(O)cc1)C(=O)N[C@H]1CSSC[C@@H](C(=O)N[C@@H](Cc2c[nH]c3ccccc23)C(=O)N[C@@H](Cc2ccccc2)C(=O)N[C@H](C(=O)N[C@H](CCCCNC(=O)CN2CCN(CC(=O)O)CCN(CC(=O)O)CCN(CC(=O)O)CC2)C(N)=O)[C@@H](C)O)NC(=O)[C@H](Cc2ccc(O)cc2)NC(=O)[C@H](C(C)C)NC(=O)[C@H](CC(=O)O)NC(=O)[C@H](Cc2ccc(O)cc2)NC(=O)[C@H](CCCC)NC(=O)CNC(=O)[C@H](C(C)C)NC1=O [compound 66, Ac-Nle-Y-C-V-G-Nle-Y-D-V-Y-C-W-F-Thr-dLys(DOTA)-CONH2] (Ac-[Nle]YCVG[Nle]YDVYCWFT[dK](DOTA)-NH2; disulfide 3-11)
3 | 100 to 300 | CC(=O)N[C@@H](CCC(C)C)C(=O)N[C@@H](Cc1ccc(O)cc1)C(=O)N[C@H]1CSSC[C@@H](C(=O)N[C@@H](Cc2c[nH]c3ccccc23)C(=O)N[C@@H](Cc2ccccc2)C(=O)N[C@H](C(=O)N[C@H](CCCCNC(=O)CN2CCN(CC(=O)O)CCN(CC(=O)O)CCN(CC(=O)O)CC2)C(N)=O)[C@@H](C)O)NC(=O)[C@H](Cc2ccc(O)cc2)NC(=O)[C@H]([C@H](C)O)NC(=O)[C@H](CC(=O)O)NC(=O)[C@H](Cc2ccc(O)cc2)NC(=O)[C@H](CCCCN)NC(=O)CNC(=O)[C@H](C(C)C)NC1=O [compound 125, Ac-hLeu-Y-C-V-G-K-Y-D-alloThr-Y-C-W-F-Thr-dLys(DOTA)-CONH2] (Ac-[hLeu]YCVGKYD[aThr]YCWFT[dK](DOTA)-NH2; disulfide 3-11)
4 | 100 to 300 | CC(=O)N[C@@H](CCC(C)C)C(=O)N[C@@H](Cc1ccc(O)cc1)C(=O)N[C@H]1CSSC[C@@H](C(=O)N[C@@H](Cc2c[nH]c3ccc(F)cc23)C(=O)N[C@@H](Cc2ccccc2)C(=O)N2CCC[C@H]2C(=O)O)NC(=O)[C@H](Cc2ccc(O)cc2)NC(=O)[C@H](C(C)C)NC(=O)[C@H](CC(=O)O)NC(=O)[C@H](CC2CCOCC2)NC(=O)[C@H](CCCCNC(=O)CN2CCN(CC(=O)O)CCN(CC(=O)O)CCN(CC(=O)O)CC2)NC(=O)CNC(=O)[C@H](C(C)(C)C)NC1=O [compound 305, Ac-hLeu-Y-C-Tbg-G-Lys(DOTA)-ThpA-D-V-Y-C-5FW-F-Pro-COOH] (Ac-[hLeu]YC[Tle]GK(DOTA)[Ala(4-THP)]DVYC[Trp(5-F)]FP-OH; disulfide 3-11)
5 | 1 to 10 | CC(=O)N[C@@H](CCC(C)C)C(=O)N[C@@H](Cc1ccc(O)cc1)C(=O)N[C@H]1CSSC[C@@H](C(=O)N[C@@H](Cc2c[nH]c3ccc(F)cc23)C(=O)N[C@@H](Cc2ccccc2)C(=O)N2CCC[C@H]2C(N)=O)NC(=O)[C@H](Cc2ccc(O)cc2)NC(=O)[C@H](C(C)C)NC(=O)[C@H](CC(=O)O)NC(=O)[C@H](Cc2ccc(C(=O)O)cc2)NC(=O)[C@H](CCCCNC(=O)CN2CCN(CC(=O)O)CCN(CC(=O)O)CCN(CC(=O)O)CC2)NC(=O)CNC(=O)[C@H](C(C)C)NC1=O [compound 289, Ac-hLeu-Y-C-V-G-Lys(DOTA)-4COOHPhe-D-V-Y-C-5FW-F-Pro-CONH2] (Ac-[hLeu]YCVGK(DOTA)[Phe(4-COOH)]DVYC[Trp(5-F)]FP-NH2; disulfide 3-11)
6 | < 1 | CC(=O)N[C@@H](CCC(C)C)C(=O)N[C@@H](Cc1ccc(O)cc1)C(=O)N[C@H]1CSSC[C@@H](C(=O)N[C@@H](Cc2c[nH]c3ccccc23)C(=O)N[C@@H](Cc2ccccc2)C(=O)N[C@H](C(=O)N[C@H](CCCCNC(=O)CN2CCN(CC(=O)O)CCN(CC(=O)O)CCN(CC(=O)O)CC2)C(N)=O)[C@@H](C)O)NC(=O)[C@H](Cc2ccc(O)cc2)NC(=O)[C@H](C(C)C)NC(=O)[C@H](CC(=O)O)NC(=O)[C@H](Cc2ccc(O)cc2)NC(=O)[C@H](CC2CCNCC2)NC(=O)CNC(=O)[C@H](C(C)C)NC1=O [compound 154, Ac-hLeu-Y-C-V-G-PipAla-Y-D-V-Y-C-W-F-Thr-dLys(DOTA)-CONH2] (Ac-[hLeu]YCVG[Ala(piperidin-4-yl)]YDVYCWFT[dK](DOTA)-NH2; disulfide 3-11)
7 | 1 to 10 | CC(=O)N[C@@H](CCC(C)C)C(=O)N[C@@H](Cc1ccc(O)cc1)C(=O)N[C@H]1CSSC[C@@H](C(=O)N[C@@H](Cc2cccc3ccccc23)C(=O)N[C@@H](Cc2ccccc2)C(=O)N2CCC[C@H]2C(N)=O)NC(=O)[C@H](Cc2ccc(O)cc2)NC(=O)[C@H](C(C)C)NC(=O)[C@H](CC(=O)O)NC(=O)[C@H](Cc2cccc(CNC(=O)CC[C@H](NC(=O)CC[C@H](NC(=O)CN3CCN(CC(=O)O)CCN(CC(=O)O)CCN(CC(=O)O)CC3)C(=O)O)C(=O)O)c2)NC(=O)[C@H](CCCCN)NC(=O)CNC(=O)[C@H](C(C)(C)C)NC1=O [compound 255, Ac-hLeu-Y-C-Tbg-G-K-MAF(gE-gE-DOTA)-D-V-Y-C-1Nal-F-Pro-CONH2] (Ac-[hLeu]YC[Tle]GK[Phe(3-CH2NH2)]([γGlu-γGlu-DOTA])DVYC[1Nal]FP-NH2; disulfide 3-11)

Same assay, conditions: SPR KD—37° C., 4Ig B7-H3; 37° C. flow cell temperature

Row | Kd [nM] | SMILES
8 | 100 to 300 | CCCC[C@H](NC(C)=O)C(=O)N[C@@H](Cc1ccc(O)cc1)C(=O)N[C@H]1CSSC[C@@H](C(=O)N[C@@H](Cc2c[nH]c3ccccc23)C(=O)N[C@@H](Cc2ccccc2)C(N)=O)NC(=O)[C@H](Cc2ccc(O)cc2)NC(=O)[C@H](C(C)C)NC(=O)[C@H](CC(=O)O)NC(=O)[C@H](Cc2ccc(O)cc2)NC(=O)[C@H](CCCCN)NC(=O)CN(CCC(=O)O)C(=O)[C@H](C(C)C)NC1=O [compound 53, Ac-Nle-Y-C-V-N(CH2)2COOHGly-K-Y-D-V-Y-C-W-F-CONH2] (Ac-[Nle]YCV[N(CH2CH2COOH)Gly]KYDVYCWF-NH2; disulfide 3-11)
9 | 1 to 10 | CC(C)CC[C@H](NC(=O)COCCNC(=O)[C@H](CCC(=O)O)NC(=O)CN1CCN(CC(=O)O)CCN(CC(=O)O)CCN(CC(=O)O)CC1)C(=O)N[C@@H](Cc1ccc(O)cc1)C(=O)N[C@H]1CSSC[C@@H](C(=O)N[C@@H](Cc2c[nH]c3ccc(F)cc23)C(=O)N[C@@H](Cc2ccccc2)C(=O)N[C@H](C(N)=O)C(C)(C)O)NC(=O)[C@H](Cc2ccc(O)cc2)NC(=O)[C@H](C(C)C)NC(=O)[C@H](CC(=O)O)NC(=O)[C@H](CC2CCOCC2)NC(=O)[C@H](CCCCN)NC(=O)CNC(=O)[C@H](C(C)(C)C)NC1=O [compound 392, DOTA-Glu-AEA-hLeu-Y-C-Tbg-G-K-ThpA-D-V-Y-C-5FW-F-hydroxyVal-CONH2] ({DOTA}-E[AEA][hLeu]YC[Tle]GK[Ala(4-THP)]DVYC[Trp(5-F)]F[Val(3-OH)]-NH2; disulfide 5-13)
10 | 10 to 100 | CC(=O)N[C@@H](CCC(C)C)C(=O)N[C@@H](Cc1ccc(O)cc1)C(=O)N[C@H]1CSSC[C@@H](C(=O)N[C@@H](Cc2c[nH]c3ccc(F)cc23)C(=O)N[C@@H](Cc2ccccc2)C(=O)N[C@H](C(=O)O)C(C)(C)O)NC(=O)[C@H](Cc2ccc(O)cc2)NC(=O)[C@H](C(C)C)NC(=O)[C@H](CC(=O)O)NC(=O)[C@H](CC2CCN(CC(=O)O)CC2)NC(=O)[C@H](CCCCNC(=O)CN2CCN(CC(=O)O)CCN(CC(=O)O)CCN(CC(=O)O)CC2)NC(=O)CNC(=O)[C@H](C(C)(C)C)NC1=O [compound 343, Ac-hLeu-Y-C-Tbg-G-Lys(DOTA)-Pip(CH2COOH)Ala-D-V-Y-C-5FW-F-hydroxyVal-COOH] (Ac-[hLeu]YC[Tle]GK(DOTA)[Ala(1-CH2CO2H-4-piperidyl)]DVYC[Trp(5-F)]F[Val(3-OH)]-OH; disulfide 3-11)
11 | < 1 | CC(=O)N[C@@H](CCC(C)C)C(=O)N[C@@H](Cc1ccc(O)cc1)C(=O)N[C@H]1CSSC[C@@H](C(=O)N[C@@H](Cc2c[nH]c3ccc(F)cc23)C(=O)N[C@@H](Cc2ccccc2)C(=O)N[C@H](C(=O)N[C@H](CO)C(N)=O)C(C)(C)O)NC(=O)[C@H](Cc2ccc(O)cc2)NC(=O)[C@H](C(C)C)NC(=O)[C@H](CC(=O)O)NC(=O)[C@H](CC2CCN(C(=O)CCOCCOCCOCCOCCNC(=O)CN3CCN(CC(=O)O)CCN(CC(=O)O)CCN(CC(=O)O)CC3)CC2)NC(=O)[C@H](CC2CCNCC2)NC(=O)CNC(=O)[C@H](C(C)(C)C)NC1=O [compound 446, Ac-hLeu-Y-C-Tbg-G-PipAla-Pip(PEG4-DOTA)Ala-D-V-Y-C-5FW-F-hydroxyVal-dSer-CONH2] (Ac-[hLeu]YC[Tle]G[Ala(piperidin-4-yl)][Ala(piperidin-4-yl)]([PEG4-DOTA])DVYC[Trp(5-F)]F[Val(3-OH)][dS]-NH2; disulfide 3-11)
